Measured values: patent US20180298340A1, “SYSTEMS FOR DETECTING, MONITORING OR TREATING DISEASES OR CONDITIONS USING ENGINEERED CELLS AND METHODS FOR MAKING AND USING THEM” (The Regents of the University of California, priority 2015, published 2018)

Experiments:
YAP/TAZ [1] = experiment: MRCS-eGFP on firm substrate treated with mechano-sensing inhibitors (immunofluorescence); type: cell-based, human; conditions: firm (~40 kPa) poly-acrylamide; blebbistatin (5004 [sic]), 10 μM ML-7, 20 μM PF228
Protocol: FIG. 16A-L illustrate images of exemplary MRCS-eGFP showing that MRCS is stiffness specific in vitro. MRCS was plated on firm (approximately 40 kPa) poly-acrylamide and treated with (FIG. 16A, FIG. 16D, FIG. 16G, FIG. 16J) […] blebbistatin and (FIG. 16B, E, FIG. 16H, FIG. 16K) 10 μM ML-7 (myosin light-chain kinase inhibitors) as well as (FIG. 16C, FIG. 16F, FIG. 16I, FIG. 16K) 20 μM PF228 (focal adhesion kinase inhibitor). […] Scale bar=50 μm.
MRCS-eGFP sensing was also shown to be reversibly stiffness-dependent (FIG. 16). Cells plated on stiff, activating substrate (approximately 40 kPa) were deactivated with the addition of blebbistatin and ML-7 (myosin light-chain kinase inhibitors) or PF228 (a focal adhesion kinase inhibitor). This was seen from the lack of GFP fluorescence (FIG. 16A-C) and from the localization of YAP/TAZ to the cytoplasm (FIG. 16D-F). Real-time RT-PCR was performed on the seeded MRCS-eGFP cells to quantify relative mRNA expression levels of eGFP and two downstream factors of YAP/TAZ, CTGF (Connective Tissue Growth Factor) and ANKRDI (ANKyrin Repeat Domain-containing protein 1) (FIG. 17). […] N-MSC plated on stiff substrate was a control.

YAP/TAZ [2] = experiment: MRCS-Luc luciferase activity on substrates with different stiffness; type: cell-based, human; conditions: compared to uninhibited cells on stiff, activating substrates
Protocol: FIG. 18 graphically illustrates data showing that MRCS-luciferase (MRCS-Luc) is stiffness specific in vitro. MRCS-Luc was seeded on substrates with different stiffness. […] D-Luciferin: 150 μg/ml in MSC growth medium. *P<0.05, **P<0.01.
The MRCS with engineered reporter-Luc construct (MRCS-Luc) was also found to be stiffness specific in vitro, similar to MRCS-eGFP (FIG. 18). […] C-MSC constitutively expressing luciferase served as a positive control, and N-MSC with no luciferase activity served as a negative control.

YAP/TAZ [3] = experiment: MRCS-CD on firm substrate treated with mechano-sensing inhibitors; type: cell-based, human; conditions: firm (~40 kPa) poly-acrylamide; 50 μM blebbistatin, 10 μM ML-7, 20 μM PF228
Protocol: FIG. 20 graphically illustrates data showing that MRCS-CD is stiffness specific in vitro based on stiffness inhibitor studies. MRCS was plated on firm (approximately 40 kPa) poly-acrylamide and treated with (A,D,G,J) 50 μM blebbistatin and (B,E,H,K) 10 μM ML-7 (myosin light-chain kinase inhibitors) as well as (C,F,I,K) 20 μM PF228 (focal adhesion kinase inhibitor). […] Scale bar=50 μm.
MRCS-CD sensing was also shown to be reversibly stiffness-dependent (FIG. 20). Cells plated on stiff, activating substrate (approximately 40 kPa) were deactivated with the addition of blebbistatin and ML-7 (myosin light-chain kinase inhibitors) or PF228 (a focal adhesion kinase inhibitor). This was seen from the lack of GFP fluorescence (FIG. 20A-C) and from the localization of YAP/TAZ to the cytoplasm (FIG. 20D-F).

[4] = cited from earlier work

Molecule: O=S(=O)(c1cccc2c(I)cccc12)N1CCCNCC1 [ML-7]
- YAP/TAZ localization in MRCS with inhibitor (YAP/TAZ [1]): in cytoplasm
- eGFP of MRCS with inhibitor (YAP/TAZ [1]): turned off
- luciferase expression levels of MRCS-Luc with inhibitor (YAP/TAZ [2]): significantly lowered
- YAP/TAZ localization in MRCS-CD with inhibitor (YAP/TAZ [3]): in cytoplasm
- cytosine deaminase (CD) of MRCS with inhibitor (YAP/TAZ [3]): turned off

Molecule: CS(=O)(=O)c1cccc(CNc2nc(Nc3ccc4c(c3)CCC(=O)N4)ncc2C(F)(F)F)c1 [PF228]
- YAP/TAZ localization in MRCS with inhibitor (YAP/TAZ [1]): in cytoplasm
- eGFP of MRCS with inhibitor (YAP/TAZ [1]): turned off
- luciferase expression levels of MRCS-Luc with inhibitor (YAP/TAZ [2]): significantly lowered
- YAP/TAZ localization in MRCS-CD with inhibitor (YAP/TAZ [3]): in cytoplasm
- cytosine deaminase (CD) of MRCS with inhibitor (YAP/TAZ [3]): turned off

Molecule: Cc1ccc2c(c1)C(=O)C1(O)CCN(c3ccccc3)C1=N2 (stereo not shown) [blebbistatin]
- YAP/TAZ localization in MRCS with inhibitor (YAP/TAZ [1]): in cytoplasm
- eGFP of MRCS with inhibitor (YAP/TAZ [1]): turned off
- luciferase expression levels of MRCS-Luc with inhibitor (YAP/TAZ [2]): significantly lowered
- YAP/TAZ localization in MRCS-CD with inhibitor (YAP/TAZ [3]): in cytoplasm
- cytosine deaminase (CD) of MRCS with inhibitor (YAP/TAZ [3]): turned off

Molecule: E. coli beta-gal: E. coli beta-galactosidase reporter enzyme
- plasma half-life [4]: less than 60 min
